Experimental data from US10889847B2, “Kit and discs for use in disc diffusion antibiotic sensitivity testing” (YISSUM RESEARCH DEVELOPMENT COMPANY OF THE HEBREW …, priority 2015, dated 2021).

Assays:
tbl3a = assay: Time-kill experiment in liquid culture, tbl3a; type: cell-based, E. coli; settings: for fraction of survivals: antibiotic 100 microgram/ml, after 2.6 hours
Method: (§1) Overnight bacterial cultures were diluted 1:100 in fresh medium containing antibiotic and incubated at 37° C. for designated time. Bacterial survival was determined by the most probable number-counting method (MPN), as described in Hurley, M. A. & Roscoe, M. E. Automated Statistical-Analysis of Microbial Enumeration by Dilution Series. J Appl. Bacteriol. 55:159-164 (1983).
These findings were verified by measuring the survival of tbl3a in liquid culture after exposure to the two antibiotics. An overnight culture was diluted and exposed either to ampicillin (100 microgram/ml) or kanamycin (100 microgram/ml). […] The large fraction of survivals in Ampicillin (12% after 2.6 hours) was predicted by the late colonies appearance, and is absent in Kanamycin (1.4E-8% after 2.6 hours).

[1] = tested on: E. coli clinical strain U453; assay: Tolerance Diffusion test (TDtest), strain U453; type: cell-based; settings: ertapenem disk (0.25 microgram), glucose disk in step II
Method: (§2) 2 Disc Test (TDtest) Procedure
(§3) The TDtest consists of two steps:
(§4) Step I—Incubation with Antibiotics:
(§5) Circa 10^7 bacteria at stationary phase (100 microliter) were plated on LBL nutrient agar plate. An antibiotic disc was placed on the agar. The plate with the antibiotic disc was incubated for at least 4 hours and up to 30 hours, preferably about 18 hours at 37° C.
(§6) The amount of antibiotics in each disk was adjusted to reach a concentration below the MIC in the inhibition zone after an overnight incubation at 37° C. Many commercial disks contain antibiotics in amounts that are too high for the concentration to fall below the MIC after this time. When this was the case, custom disks were prepared as specified herein below.
(§7) Step II—Incubation with Nutrient:
(§8) This step was carried out in one of the following protocols:
(§9) a. The antibiotic disk was replaced with a nutrient (i.e. 2 mg glucose) disk at the end of the antibiotic incubation time. The plate was incubated again for an additional overnight (at least 5 hours and up to 24 hours, preferably about 18 hours) at 37° C.
(§10) b. Nutrient solution (i.e., 2 mg glucose, or 5 microliter of 40% glucose solution) was added directly on the antibiotic disk, instead of replacing it.
(§11) c. Two phases disk was prepared, by impregnating 6 mg glucose on the upper side of the disk.
(§12) After the completion of the above steps, the growth of the bacteria was visually inspected.

[2] = tested on: E. coli strains W574 and U453; assay: Survival fraction in liquid culture, W574 versus U453; type: cell-based; settings: ertapenem 10 microgram/ml
Method: as §1

E. coli strain U453 = assay: MIC, strain U453; type: cell-based; settings: Escherichia coli
[3] = at 12 hours after 1 gram dosing; cited from earlier work
E. coli strain W574 = assay: MIC, strain W574; type: cell-based; settings: Escherichia coli
[4] = tested on: E. coli clinical strain W574; assay: Tolerance Diffusion test (TDtest), strain W574; type: cell-based; settings: ertapenem disk (0.25 microgram), glucose disk in step II
Method: as §2, §3, §4, §5, §6, §7, §8, §9, §10, §11, §12

[5] = tested on: E. coli tolerant strain tbl3a; assay: Tolerance Diffusion test (TDtest), strain tbl3a; type: cell-based
Method: as §2, §3, §4, §5, §6, §7, §8, §9
b. […]
Tolerant bacteria are identified by the use of two different TDtest methods, the two-disks TDtest and the single disk TDtest. […] The growth of the bacterium was monitored at several time points (0, 8, 17, 30 and 36 hours from the beginning of the test).

many species = settings: in many species; cited from earlier work
tbl5a = assay: Tolerance Diffusion test (TDtest), strain tbl5a, three growth media; type: cell-based, E. coli; settings: after second step, LB agar, Mueller-Hinton agar, Mueller-Hinton+5% Blood agar
Method: FIG. 13A-13C show TDtest performed on three different growth media. The results are shown after the second step of TDtest examining the effect of ampicillin on tbl5a.
FIG. 13A is a LB agar plate.
FIG. 13B is a Mueller-Hinton agar plate.
FIG. 13C is a Mueller-Hinton+5% Blood agar plate.
as §2, §3, §4, §5, §6, §7, §8, §9
b. […]

[6] = tested on: E. cloacae clinical strain B340; assay: Tolerance Diffusion test (TDtest), strain B340; type: cell-based; settings: ampicillin disk replaced with glucose disk after 18 hours, read at 36 hours
Method: as §2, §3, §4, §5, §6, §7, §8, §9, §10, §11
After the completion of the above steps, the growth of the bacteria was visually inspected. […]

MIC (E. coli strain U453) [µg/mL]	MIC (E. coli strain W574) [µg/mL]	Structure (SMILES)	fraction of survivals (tbl3a) [%]	tolerance level by TDtest (colonies inside the inhibition zone after step II) [1]	fraction of survival of a liquid culture, W574 versus U453 [2]	mean serum concentration [3] [microgram/ml]	tolerance level by TDtest (colonies inside the inhibition zone after step II) [4]	bacterial colonies in TDtest plate ([5]; after 36 hours, two-disks TDtest (glucose disk after 18 hours) or single disk TDtest)	tolerance by TDtest ([5]; ampicillin 10 microgram or kanamycin 15 microgram disk)	MIC (many species)	tolerance level by TDtest (tbl5a)	tolerance by TDtest (colonies in inhibition zone) [6]	survival fraction under ampicillin relative to kanamycin (tbl3a; 100 microgram/ml each)
		NC[C@H]1O[C@H](O[C@H]2[C@H](O)[C@@H](O[C@H]3O[C@H](CO)[C@@H](O)[C@H](N)[C@H]3O)[C@H](N)C[C@@H]2N)[C@H](O)[C@@H](O)[C@@H]1O [kanamycin]	1.4E-8										
< 0.05	< 0.05	C[C@@H](O)[C@H]1C(=O)N2C(C(=O)O)=C(S[C@@H]3CN[C@H](C(=O)Nc4cccc(C(=O)O)c4)C3)[C@H](C)[C@H]12 [ertapenem]		low tolerance	higher tolerance	~10	high tolerance						
		CC1(C)S[C@@H]2[C@H](NC(=O)[C@H](N)c3ccccc3)C(=O)N2[C@H]1C(=O)O [ampicillin]	12					bacterial colonies are well seen	very tolerant	around 4 microgram/ml	medium tolerance (“medium tolerance” is 10 to a few hundred colonies in the inhibition zone)	tolerant	three orders of magnitude lower
